Reference: patent US20110165115A1, “SYNERGISTIC ATTRACTANTS FOR PESTIFEROUS SOCIAL INSECTS” (STERLING INTERNATIONAL INC., priority 2010, published 2011)

Tests used:
[1] = tested on: V. acadica; experiment: Field trapping Experiment 3, different doses of DMNT alone; format: in vivo, Vespula acadica
Description: (§1) Three field trapping experiments were carried out during late July to early August 2009, in residential and woody areas around Spokane, Wash., USA, using the newly marketed Rescue® W•H•Y traps (www.rescue.com). As used herein, the W•H•Y trap is a trap in accordance with the description of United States Patent Application Publication No. 2009/0151228. The W•H•Y trap has a top chamber and a bottom chamber. The top chamber is baited with two attractants—one of which is a solid contained in a vial (2-methyl-1-butanol) and the other a liquid mixed with water (acetic acid), herein referred to as the W•H•Y top attractant. The bottom chamber is baited with a liquid attractant (heptyl butyrate) poured onto a cotton pad, herein referred to as the W•H•Y bottom attractant. Separation of the top and bottom attractants (otherwise antagonistic to each other when released from the same chamber) in two chambers was a design feature of this trap and creates two focal attraction sources from one trap for different species of wasps, hornets, and yellowjackets. Traps were hung 1.5-2.0 m above the ground on either the fence or tree branches ca. 5 m apart within each trap line. For each trapping experiment, six sets of traps were deployed with their initial trap positions within each set being randomized. To minimize positional effects and obtain more replications, wasp collections and trap re-randomization were carried out when ≧10-20 wasps were caught in the best trap. Each replicate lasted several days depending on wasp flight activity. Captured wasps were removed from the traps and kept in the zip-bags before taking back to the laboratory for recording of the species, gender status, and catch.
(§2) Experiment 3 (Aug. 5-13, 2009) was conducted to determine the potential behavioral activity of different doses of (E)-4,8-dimethyl-1,3,7-nonatriene alone. The individual (or different doses) HIPVs were loaded into either polyethylene bags or centrifuge tube type of dispensers, and released from the top of the W•H•Y trap chamber. W•H•Y trap attractants (both top and bottom or top only) alone and water (top chamber only) were included in the test as positive and blank controls, respectively. The dispenser types, loading and release rates of the tested semiochemicals are described in Tables 1, 2 and 3.
(§3) Trap catch data were converted to proportion (P) of total captured wasps within each replicate. Data were then transformed by arcsin√P to meet the assumptions of normality and homogeneity of variances for ANOVA. Means were compared by ANOVA followed by the Ryan-Einot-Gabriel-Welsh (REGW) multiple Q test (SPSS 16.0 for Windows) at α=0.05.

[2] = tested on: V. pensylvanica; experiment: Field trapping Experiment 2, DMNT dose-response with W•H•Y top attractants; format: in vivo, Vespula pensylvanica; settings: Exp 2, DMNT added to WHY top attractant
Description: as §1, §2, §3

[3] = tested on: P. aurifer; experiment: as above; format: in vivo, Polistes aurifer; settings: Exp 2, DMNT added to WHY top attractant
Description: as §1, §2, §3

[4] = tested on: yellowjackets; experiment: Field trapping Experiment 1, top chamber catches; format: in vivo; settings: Exp 1; HIPV combined with W•H•Y attractant (acetic acid and 2-methyl-1-butanol) in the top chamber
Description: as §1
Experiment 3 (Aug. 5-13, 2009) was conducted to determine the potential behavioral activity of different doses of (E)-4,8-dimethyl-1,3,7-nonatriene alone. The individual (or different doses) HIPVs were loaded into either polyethylene bags or centrifuge tube type of dispensers, and released from the top of the W•H•Y trap chamber. […]

[5] = release rate 0.25, hole 0.5 mm, loading 15 μL
[6] = release rate 0.5, hole 1 mm, loading 30 μL
[7] = release rate 1, hole 2 mm, loading 75 μL
[8] = release rate 1.5, hole 3 mm, loading 175 μL
[9] = release rate 2, hole 5.5 mm, loading 325 μL

## C=C/C=C(\C)CCC=C(C)C [(E)-4,8-dimethyl-1,3,7-nonatriene]
[1]; Exp 3, release rate 0.25, hole 0.5 mm, loading 15 μL
  Total Yellowjackets Caught V. acadica: 0
[1]; Exp 3, release rate 0.5, hole 1 mm, loading 30 μL
  Total Yellowjackets Caught V. acadica: 0
[1]; Exp 3, release rate 1, hole 2 mm, loading 75 μL
  Total Yellowjackets Caught V. acadica: 0
[1]; Exp 3, release rate 1.5, hole 3 mm, loading 175 μL
  Total Yellowjackets Caught V. acadica: 0
[1]; Exp 3, release rate 2, hole 5.5 mm, loading 325 μL
  Total Yellowjackets Caught V. acadica: 0
[2]; [5]
  Total Yellowjackets Caught V. pensylvanica: 68
[2]; [6]
  Total Yellowjackets Caught V. pensylvanica: 90
[2]; [7]
  Total Yellowjackets Caught V. pensylvanica: 47
[2]; [8]
  Total Yellowjackets Caught V. pensylvanica: 77
[2]; [9]
  Total Yellowjackets Caught V. pensylvanica: 46
[3]; [5]
  Total Paper Wasps Caught P. aurifer: 0
[3]; [6]
  Total Paper Wasps Caught P. aurifer: 0
[3]; [7]
  Total Paper Wasps Caught P. aurifer: 0
[3]; [8]
  Total Paper Wasps Caught P. aurifer: 0
[3]; [9]
  Total Paper Wasps Caught P. aurifer: 0
[4]
  effect on trap catches of yellowjackets in the top chambers: significantly increased
